Activity calls are given as the source filed them. No rule for the calls is given here.

A word on the IC50: it is the concentration that inhibits the measured activity by half.

The assay is described as follows: H9c2 cardiomyoblast viability modulators under 2-DG – cell-based, ATPlite luminescence, rat, set 2, myocardial damage modulator project, dose response (AID 602210). To be noted: H9c2 rat cardiomyoblasts, 2-deoxyglucose-induced death, 2 h. (In general: ATP-based viability assays read luminescence as a measure of living cells.)
`C=CC[C@@H](CC(=O)NCCO)C(=O)NC[C@H](OC(=O)[C@@H](CC=C)Cc1ccc(F)cc1)c1ccccc1`: the IC50 is 11.9 µM (inactive). The same measure for `COCCn1c(=NC(=O)c2nc3ccccc3s2)sc2cc(S(C)(=O)=O)ccc21`: > 79 µM (inactive). In the case of `COc1cc(-c2cc(NC(C)=O)c3ncc(-c4ccc(C(C)=O)cc4)n3c2)cc(OC)c1OC` it was 7.42 µM. The same measure for `CCOc1ncccc1C(=O)Nc1cccc(-c2nc3cccnc3s2)c1`: 7 µM; for `CCN(C[C@H]1N[C@@](Cc2ccccc2)(C(=O)OC)[C@H]2C(=O)N(C)C(=O)[C@@H]12)S(=O)(=O)c1ccc(OC)cc1`: > 79 µM (inactive); for `CN(C)S(=O)(=O)n1cc(/C=C(\NC(=O)c2ccccc2F)C(=O)NCCN2CCOCC2)c2ccccc21`: > 79 µM (inactive).

For `COc1ccc(Cl)cc1-c1nc(-c2ccc(NC(=O)c3cccs3)cc2)no1`, the IC50 was > 79 µM (inactive).

For the compound `Cc1ccc(-c2nn3c(-c4ccco4)nnc3c3ccccc23)cc1S(=O)(=O)NCC1CCCO1` (centres undefined), the IC50 is 27.1 µM (inactive).

For the compound `CC(=O)Nc1cc(-c2ccc(C(=O)NC3CC3)cc2)cn2c(-c3cccc(C(C)=O)c3)cnc12`, the IC50 was 23.3 µM (inactive). The same measure for `CCC(=O)N1CCN(c2ccccc2NC(=O)c2ccc(-c3cccc([N+](=O)[O-])c3)o2)CC1`: > 79 µM (inactive). For the compound `COc1ccc(CCn2c(=N)c(C(=O)NCC3CCCO3)cc3c(=O)n4cccc(C)c4nc32)cc1OC` (centres undefined), the IC50 was > 79 µM (inactive). The same measure for `CCOc1ccccc1NC(=O)c1oc2ccccc2c1NC(=O)C1CCCO1` (centres undefined): 12.6 µM (inactive). As for `COc1cccc(/C=N/NC(=O)c2ccncc2)c1OC(=O)c1ccc(Br)cc1`, the IC50 was 28.3 µM (inactive). For the compound `Cc1cccc(NC(=O)c2oc3ccc(S(=O)(=O)N4CCOCC4)cc3c2C)c1C`, the IC50 was 11 µM (inactive).

As for `O=C(c1ccccc1)c1ccc2nc(N3CCN(C(=O)c4ccco4)CC3)c3nncn3c2c1`, the IC50 was 21.9 µM (inactive).

As to `COC(=O)c1cc(C(=O)OCC(=O)N2c3ccccc3NC(=O)C2(C)C)cc([N+](=O)[O-])c1`, the IC50 was 47.6 µM (inactive). `O=C(N/N=C/c1ccccn1)c1cc(-c2cccc3ccccc23)n[nH]1`: the IC50 is 20.7 µM (inactive). Turning to `COc1ccc(/C=C/C(=O)c2ccccc2O)cc1CN1CCOCC1`, the IC50 is 25.7 µM (inactive).

In the case of `c1cc2[nH]snc2c2nc(C3CC3)nc12`, the IC50 was 10.6 µM (inactive). Take `CS(=O)(=O)c1ccc(-c2cnc3c(NC=O)cc(-c4ccsc4)cn23)cc1`: the IC50 was 23 µM (inactive). Consider `Cn1c(C(=O)NCCc2ccsc2)cc2c(=O)n(C)c3ccccc3c21`, for which the IC50 is 11.3 µM (inactive). In the case of `COc1ccc(-c2csc(NC(=O)CCCc3nc4ccccc4c(=O)[nH]3)n2)cc1OC` it was 23.3 µM (inactive); in that of `O=C(Nc1nc(-c2ccccn2)cs1)c1ccc(-c2ccccc2F)o1`, > 79 µM (inactive); in that of `COc1cc(/C=C/c2nc(-c3ccccc3O)n[nH]2)cc(OC)c1OC`, > 79 µM (inactive). The same measure for `COc1cc(/C=N/NC(=O)c2ccncc2)ccc1OC(=O)c1ccccc1Cl`: 15.8 µM (inactive); for `COc1ccccc1CN(C(=O)CNC(=O)c1ccco1)C(C(=O)NCC1CCCO1)c1ccccc1` (centres undefined): 9.47 µM; for `COc1ccc(NC(=O)c2cc(-c3ccccn3)nc3ccccc23)cc1S(=O)(=O)N(C)C`: 5.87 µM. The same measure for `COc1ccc(-c2cc(C(=O)N(C)Cc3nc4ccccc4c(=O)[nH]3)c3ccccc3n2)cc1OC`: 10.3 µM (inactive). In the case of `COc1ccc(-c2nn(-c3ccccc3)cc2C(=O)Nc2nccs2)cc1`, the IC50 is 16.4 µM (inactive). For the compound `CC(=O)c1ccc(-c2cnc3c(NC=O)cc(-c4ccc(C(=O)NC5CC5)cc4)cn23)cc1`, the IC50 was 6.57 µM. For the compound `COc1cccc(/C=N/NC(=O)c2oc3nc(-c4ccccc4)cc(-c4ccco4)c3c2N)c1`, the IC50 was 10.5 µM (inactive). As for `COCc1c(C(=O)Nc2ccc3nc(N4CCOCC4)sc3c2)oc2ccccc12`, the IC50 was 15 µM (inactive). Consider `CNC(=O)c1cccc(NC(=O)c2cc(-c3ccccc3)nc3c2cnn3C(C)C)c1`, for which the IC50 is 14.3 µM (inactive).

Consider `C[C@@H]1CN([C@H](C)CO)S(=O)(=O)c2ccc(C#Cc3ccccc3F)cc2O[C@H]1CN(C)C(=O)c1ccc2c(c1)OCO2`, for which the IC50 is 8.38 µM. Take `CCOc1ccc(C(C(=O)NCC2CCCO2)N(C(=O)c2snc(C(N)=O)c2N)c2ccccc2F)cc1` (centres undefined): the IC50 is 24 µM (inactive).

Turning to `Nc1c(C(=O)N/N=C/c2cccnc2)oc2nc(-c3ccccc3)cc(-c3ccco3)c12`, the IC50 is 3.52 µM. `Cc1ccc2[nH]c(=O)c(CN(Cc3ccco3)S(=O)(=O)c3c(C)ccc4nsnc34)cc2c1`: the IC50 is 45.3 µM (inactive). Take `Cc1ccccc1C(C(=O)NCc1ccccc1)N(Cc1ccco1)C(=O)c1ccccn1` (centres undefined): the IC50 is 45.6 µM (inactive). Turning to `COC(=O)c1ccc(C(C(=O)NCc2ccccc2)N(Cc2cccs2)C(=O)c2cnccn2)cc1` (centres undefined), the IC50 was 13.4 µM (inactive).

For the compound `COc1ccc(OC)c(/C=N/Nc2nncn2/N=C/c2cc(OC)ccc2OC)c1`, the IC50 was > 79 µM (inactive). The same measure for `CC1Nc2ncnc(N3CCN(c4ccccc4)CC3)c2N(Cc2ccc(Cl)cc2)C1=O` (centres undefined): 21.4 µM (inactive); for `COc1ccc(OCC(O)Cn2c(Br)nc3c2c(=O)[nH]c(=O)n3C)cc1` (centres undefined): 38.1 µM (inactive); for `Brc1cc2c(cc1/C=N/Nc1nc(N3CCCC3)nc(N3CCOCC3)n1)OCO2`: 16 µM (inactive). In the case of `CNC(=O)c1ccc(-c2sc3nc(N4CCOCC4)c4c(c3c2N)CC(C)(C)OC4)o1` it was 21.3 µM (inactive).

As for `Cc1c(C(=O)Nc2ccc3nc(N4CCOCC4)sc3c2)oc2ccccc12`, the IC50 is 15.8 µM (inactive). `O=C(Nc1cccc(NC(=O)c2ccc([N+](=O)[O-])o2)c1)c1ccco1`: the IC50 is 3.85 µM. Take `COc1ccc(-n2cc(-c3ccccc3)c3c(N4CCOCC4)ncnc32)cc1`: the IC50 was 6.04 µM.

Turning to `COc1ccc(OCC(O)Cn2c(Nc3cccc(C)c3)nc3c2c(=O)n(C)c(=O)n3C)cc1` (centres undefined), the IC50 is 34 µM (inactive). Turning to `Brc1ccc(-c2ccc(/C=N/Nc3nc(N4CCOCC4)nc(N4CCOCC4)n3)o2)cc1`, the IC50 was 5.7 µM.

For `CC(C)(C)OC(=O)CNC(=O)c1[nH]cnc1C(=O)NCC(=O)OCc1ccccc1`, the IC50 is 4.16 µM.

Turning to `O=C(NCC(=O)N(Cc1cccs1)C(C(=O)NC1CCCCC1)c1ccco1)c1cccs1` (centres undefined), the IC50 is 17 µM (inactive). In the case of `COc1ccc(OC)c(/C=N/NC(=O)c2cc3c(OC)c(OC)ccc3[nH]2)c1`, the IC50 is 8.62 µM. The same measure for `COC(=O)c1cccc(Nc2nc(-c3cccnc3)nc3ccccc23)c1`: 7.25 µM. The same measure for `O=C(N/N=C/c1ccccn1)c1[nH]c2ccc([N+](=O)[O-])cc2c1-c1ccccc1`: > 79 µM (inactive). In the case of `COc1cc(NC(=O)c2c(OC)cccc2OC)ccc1NC(=O)c1cc2ccccc2o1`, the IC50 is 13.4 µM (inactive).

`COc1cc(NC(=O)c2cccc3c(-c4cnn(C)c4)coc23)cc(OC)c1OC`: the IC50 is > 79 µM (inactive).

Consider `O=C(Nc1cccc2cccnc12)c1ccc2sc([C@H]3C[C@H](O)[C@@H](CO)O3)nc2c1`, for which the IC50 was 24.3 µM (inactive). For `CCCc1cc(N2CCN(C(=O)c3ccco3)CC2)n2c(nc3ccccc32)c1C#N`, the IC50 was 26.3 µM (inactive). With `COc1ccc(-c2cc(NC=O)c3ncc(-c4cccc(C(C)=O)c4)n3c2)cc1`, the IC50 is > 79 µM (inactive).

With `COc1ccc(-c2cc3nc(C)cc(N4CCN(C(=O)c5ccoc5)CC4)n3n2)cc1`, the IC50 was > 79 µM (inactive). On to `CC(C)C1Nc2ccc(C(=O)N3CCN(c4ccccn4)CC3)cc2NC1=O` (centres undefined), for which the IC50 is > 79 µM (inactive). For the compound `CC(=O)c1cccc(-c2cnc3c(NC=O)cc(-c4ccccc4F)cn23)c1`, the IC50 is 17.9 µM (inactive). For `CCCOc1ccc2[nH]c(C(=O)N/N=C/c3cc(OC)c(OC)c(OC)c3)cc2c1`, the IC50 is > 79 µM (inactive).

For `NS(=O)(=O)c1ccc(CCNc2ccn3nc(-c4ccc(OCCN5CCOCC5)cc4)cc3n2)cc1`, the IC50 is 45.8 µM (inactive). As for `CCOc1cccc(-c2nn3c(-c4ccccn4)nnc3s2)c1`, the IC50 was 30.2 µM (inactive).

On to `O=C/C(=C\Nc1ccccn1)c1nc2cc(Cl)ccc2o1`, for which the IC50 is > 79 µM (inactive). The same measure for `O=CNc1cc(-c2ccc(C(=O)NC3CC3)cc2)cn2c(-c3ccc(F)c(Cl)c3)cnc12`: 17.2 µM (inactive); for `COc1cccc(CN(C)C(=O)C(Cc2ccccc2)NC(=O)c2ccccc2)c1OC` (centres undefined): 20.8 µM (inactive); for `O=C(Nc1cccnc1)c1sc(Nc2ccccc2)nc1-c1ccccc1`: > 79 µM (inactive). For the compound `COC(=O)c1[nH]c2cc(OC)c(OC)cc2c1/C=N/Nc1ccccc1`, the IC50 is > 79 µM (inactive). The same measure for `COc1ccc(-c2csc(NC(=O)c3ccc(OCC(=O)N4CCOCC4)c(OC)c3)n2)cc1OC`: 10.9 µM (inactive). Turning to `COc1cc(C(=O)N/N=C/c2ccc(OC(=O)c3ccccc3Cl)cc2)ccc1O`, the IC50 was > 79 µM (inactive). In the case of `COc1ccc(OC)c(NC(=O)c2sc3ncnc(N4CCN(c5ccccn5)CC4)c3c2C)c1` it was 12.1 µM (inactive); in that of `Cc1ccc(C(C(=O)NCc2ccccc2)N(Cc2ccco2)C(=O)c2snc(C(N)=O)c2N)o1` (centres undefined), 8.59 µM. For the compound `COCCn1cnc2c(c1=O)c1nc3ccccc3nc1n2/N=C/c1cccc(OC)c1`, the IC50 is > 79 µM (inactive). In the case of `CCOC(=O)c1nn(-c2cccc(OC)c2)c2nc(Nc3ccccc3)cc(=O)n12` it was > 79 µM (inactive).

Take `C=CCn1cnc2c(c1=O)c1nc3ccccc3nc1n2/N=C/c1cc(OC)c(OC)c(OC)c1`: the IC50 was 2.64 µM. In the case of `Cc1ccc(C)c(C(=O)Nc2cc(C)nn2-c2nc(C)cc(C)n2)c1`, the IC50 is 30.1 µM (inactive). On to `O=C(Nc1cc(S(=O)(=O)N2CCOCC2)ccc1N1CCCCC1)c1cc(-c2ccccn2)nc2ccccc12`, for which the IC50 is 14.6 µM (inactive).

The record behind these values is PubChem BioAssay AID602210 (Sanford-Burnham Center for Chemical Genomics, 2012).
